Experimental data reported in patent US20180153867A1, “TREATMENT OF PROSTATE CANCER BY CONCOMITANT ADMINISTRATION OF A BROMODOMAIN INHIBITOR AND A SECOND AGENT” (Gilead Sciences, Inc., priority 2016, published 2018).
“Also recorded” adds a separate entry of the source.

What was measured:
[1] = Protein binding difference between cell culture media and human plasma; format: in vitro ADME; conditions: cell culture media vs human plasma
[2] = dog, in vivo
Protocol: The Phase 1 study will be a 3+3 dose escalation to evaluate the safety, tolerability, PK, and maximum tolerated dose of compound (I-1) after multiple dosing in patients with CRPC. The initial dose will be at 0.6 mg, and intensive safety, PK and PD monitoring will occur prior to each dose escalation. […] Approximately six dose levels will be explored. The PD assessment will be a NanoString assay that measures levels of HEXIM1 and CCR2 RNA in peripheral blood cells.

[3] = test system: VCaP (AR-V7 positive) cells; assay: Cell growth inhibition in VCaP cells (Cell Titer-Glo, 96 hours); format: cell-based; conditions: for EC50: Homo sapiens, VCaP; for inhibition of cell growth and viability / effect on growth and number of viable VCaP cells (in words): 96 hours; for effect on growth and number of viable VCaP cells (in words): single agent, 3 to 10,000 nM
Protocol: (§1) VCaP cells were grown under standard cell culture conditions in 10% fetal bovine serum (FBS). LNCaP cells were grown in charcoal stripped FBS supplemented with 10 nM DHT in a 3-dimensional cell spheroid culture system, which increases androgen-dependent growth. […] This concentration of enzalutamide (3000 nM) was chosen for the combination study because it matches the clinical steady state trough level of enzalutamide at the recommended dose of 160 mg QD after accounting for differences in protein binding between cell culture media and human plasma. Cell growth and number was measured by quantification of the total cellular ATP content (Cell Titer-Glo® Luminescent Cell Viability Assay) at the time of compound addition (T=0), and after 96 hours of treatment.
(§2) Referring again to FIG. 1, the Y-axis is normalized CellTiter-Glo values where the bottom of the assay (no ATP)=0% and the DMSO-treated cells=100% at the end of the assay. T=0 represents the CellTiter-Glo signal recorded at the time of compound addition. […] One representative of three independent experiments is shown.

[4] = test system: LNCaP (AR-V7 negative) cells; assay: Cell growth inhibition in LNCaP cells, 3-dimensional spheroid culture (Cell Titer-Glo, 96 hours); format: cell-based
Protocol: as §1, §2

[5] = patients, enzalutamide; cited from earlier work
[6] = compound (I-1) alone at its projected Cmax
[7] = compound (I-1) alone at its projected Cmin
[8] = compound (I-1) at its projected Cmax with 3,000 nM enzalutamide
[9] = compound (I-1) at its projected Cmin with 3,000 nM enzalutamide

Cc1noc(C)c1-c1cc(C(O)(c2ccccn2)c2ccccn2)c2nc(C3CC3)[nH]c2c1 [compound (I-1), (2-cyclopropyl-6-(3,5-dimethylisoxazol-4-yl)-1H-benzo[d]imidazol-4-yl)di(pyridin-2-yl)methanol]
difference in protein binding between cell culture media and human plasma [1]: 5.7 × | dose/toxicity relationship [2]: steep dose/toxicity relationship | EC50 ([3]; compound (I-1) alone): 130 nM | EC50 ([3]; in the presence of 3,000 nM enzalutamide): 75 nM | inhibition of cell growth and viability [3, 6]: 40% | inhibition of cell growth and viability [3, 7]: 0% | inhibition of cell growth and viability [3, 8]: 65% | inhibition of cell growth and viability [3, 9]: 25% | effect on growth and number of viable VCaP cells (in words) [3]: potently reduced the growth of VCaP cells; also recorded: decreased the number of viable cells to below that recorded at the beginning of the assay (T=0) | inhibition of cell growth and viability [4, 6]: 45% | inhibition of cell growth and viability [4, 7]: 20% | inhibition of cell growth and viability [4, 8]: 65% | inhibition of cell growth and viability [4, 9]: 45%

CNC(=O)c1ccc(N2C(=S)N(c3ccc(C#N)c(C(F)(F)F)c3)C(=O)C2(C)C)cc1F [enzalutamide]
OS HR [5]: 0.69 | increase in OS [5]: 3.4 month | effect on growth and number of viable VCaP cells (in words) [3]: reduced the growth of VCaP cells but the magnitude of growth suppression was significantly less than that observed for compound (I-1)
